Data as given in US20240197666A1, “DITERPENOID COMPOUNDS THAT ACT ON PROTEIN KINASE C (PKC)” (K-Gen Therapeutics, Inc., priority 2021, published 2024).
Where two headings read alike, the source gives them in different places.

Experiments:
C1b domain of human PKCθ = target: T1, C1b domain of human PKCθ (Homo sapiens, UniProt Q04759); assay: biochemical; assay type: binding; conditions: 3H-PDBu competition
T1 construct: Genes encoding C1b domains of human PKCα, δ, ε, θ, and PKD1 (PKCμ) were synthesized; made in house; host or cells: E. coli BL21(DE3)
T1 sequence (Q04759 231-281 limits assumed): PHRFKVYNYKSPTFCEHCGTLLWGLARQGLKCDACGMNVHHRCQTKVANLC
Description: (§1) Compounds described in this disclosure were tested for binding affinity to C1b domain of PKC isoforms. Compound binding affinity to C1b domain of PKC isoforms was derived from competitive binding assay using radioactive tracer ^3H-PDBu and recombinant GST-C1b or full-length of human PKC proteins based on modified procedures from Methods in Molecular Biology, vol.
(§2) Genes encoding C1b domains of human PKCα, δ, ε, θ, and PKD1 (PKCμ) were synthesized and inserted into pGEX-2TK or pGEX-4T1 vectors for expression and production of GST-C1b proteins in E. coli BL21(DE3) via IPTG induction. The target proteins were purified by glutathione sepharose 4B and followed by ion exchange chromatography if needed to achieve purity >70%. Aliquots of the purified proteins were stored at −80 degree for binding assay (storage buffer: 20 mM Tris pH 8.0, 200 mM NaCl, 10% glycerol, 1 mM DTT).
(§3) The plate was incubated at 37° C. on a shaker at 300 rpm for 10 minutes and then put on ice for 20 minutes. […] The bottom of the filter plate was sealed and 50 μL of MicroScint-20 (PerkinElmer) cocktail was added to each well. ^3H-PDBu trapped in each well was counted using PerkinElmer MicroBeta2 Reader. Data were analyzed using GraphPad Prism5 with the model “log(inhibitor) vs. response-variable slope” to fit the IC50, and then IC50 was transformed to Ki using Cheng-Prusoff equation: Ki=IC50/(1+added radio ligand/Kd). Kd is the binding affinity of each protein preparation to ^3H-PDBu, determined experimentally.

A549 cell line = assay: Proliferation of A549 (CellTiter Glo); assay type: cell-based; conditions: Homo sapiens, A549, 96 h, read-out: IC50 μM (A549 Cell Line)
Description: (§4) The diterpenoid compounds were tested in A549, a non-small cell lung cancer cell line harboring a K-Ras activating mutation. Briefly, A549 cells at a density of 1,000 cells/well were seeded in 96-well plates and incubated at 37° C. for 24 hours. A series of different concentrations of compound stocks (500×) were prepared by 3-fold serial dilution in DMSO. These compounds were further diluted in culture media and then added to cells so that the final DMSO concentration was not exceeding 0.25%. After 96 hours of incubation, 50 μL of CellTiter Glo reagent (Promega) was added to each well and luminescence was measured after 10 minutes using EnVision (PerkinElmer). Luminescence from cells treated with DMSO alone was set as Max and % of inhibition was calculated as follows: Inhibition %=(Max-Sample value)/Max×100. Data was analyzed using XL-fit software (ID Business Solutions Ltd.) and IC50, relative IC50, and % of top inhibition was calculated. Some of the compounds in this disclosure were very potent in blocking proliferation of A549 lung cancer cells at low nM range. In addition, potency of inhibiting A549 proliferation correlated well with its binding affinity to PKCs for this series of compounds. In other words, higher affinity binders had stronger inhibitory effects on A549 proliferation. This further support the notion that activation, rather than inhibition, of certain PKC isoforms is required to block proliferation of cancer cells, some of which may harbor K-Ras mutations. This is in sharp contrast to previous literature and common belief that inhibition of PKC is necessary to block cancer cell growth (Kang, 2014, New Journal of Science, 2014:1-36). Data presented here is in agreement with recent findings that many loss-of-function but not gain-of-function mutations of PKC isoforms have been identified in many human cancers (Antal et al., 2015, Cell, 160:489-502).

HL-60 (Leukemia) = assay: Proliferation of HL-60; assay type: cell-based; conditions: for IC50: Homo sapiens, HL-60, read-out: IC50 HL-60 (Leukemia)
Description: as §4
(§5) The compounds in this disclosure were tested for their potency in blocking proliferation of a few other cancer cells lines, including K-Ras mutant pancreatic cell lines Panc2.13 and KP-4, leukemia cell line HL-60, and lymphoma cell lines Namalwa and Mino. Similar procedures as in Example 67 were followed. Initial cell numbers seeded in 96-well plates were different for different cell lines: 3000 cells/well for Panc2.13; 800-1000 cells/well for KP-4; 5000 cells/well for HL-60; 5000-10000 cells/well for Namalwa and Mino. A ratio of (IC50 of K101)/(IC50 of compound) (data in parenthesis in Table 5) was used to normalize the compound potency from different assay batches to a common comparator K101.

Namalwa (Lymphoma) = assay: Proliferation of Namalwa; assay type: cell-based; conditions: for IC50: read-out: IC50 Namalwa (Lymphoma)
Description: as §4, §5

Mino (Lymphoma) = assay: Proliferation of Mino; assay type: cell-based; conditions: for IC50: Homo sapiens, MINO, read-out: IC50 Mino (Lymphoma)
Description: as §4, §5

[1] = tested on: NFκB-driven transcription in HeLa-NFκB luciferase reporter cell line; assay: NFκB luciferase reporter assay; conditions: Homo sapiens, HeLa, 16 h, read-out: NFκB-luc HeLa cells EC50 (μM)
Description: A HeLa-NFκB luciferase reporter cell line (Wuxi Biology) was used to assess a group of PKC activator compounds for their ability to activate NFκB-driven transcription. […] One set of cells was assayed for luciferase activity (Promega, Cat #E1500) and the other set was assayed to determine the number of viable cells (for cell number normalization) using CellTiter-Glo (CTG) kit (Promega, Cat #G7570) according to manufacture's procedures. Normalized data (luciferase value/CTG value) were analyzed using GraphPad Prism5 to calculate EC50 for each compound (see Table 8).
To assess if activation of PKC is required for these compounds to activate NFκB, several PKC inhibitors including broad-spectrum and conventional PKC inhibitors were tested. In the assay described above, PKC inhibitors were added at the same time as the PKC activator compounds.

C1b domain of human PKCδ = target: T2, C1b domain of human PKCδ (Homo sapiens, UniProt Q05655); assay: biochemical; assay type: binding; conditions: 3H-PDBu competition
T2 construct: Genes encoding C1b domains of human PKCα, δ, ε, θ, and PKD1 (PKCμ) were synthesized; made in house; host or cells: E. coli BL21(DE3)
Description: as §1, §2, §3

C1b domain of human PKCε = target: T3, C1b domain of human PKCε (Homo sapiens, UniProt Q02156); assay: biochemical; assay type: binding; conditions: 3H-PDBu competition
T3 construct: Genes encoding C1b domains of human PKCα, δ, ε, θ, and PKD1 (PKCμ) were synthesized; made in house; host or cells: E. coli BL21(DE3)
Description: as §1, §2, §3

Panc2.13 (Pancreatic) = assay: Proliferation of Panc2.13; assay type: cell-based
Description: as §4, §5

KP-4 (Pancreatic) = assay: Proliferation of KP-4; assay type: cell-based; conditions: read-out: IC50 KP-4 (Pancreatic)
Description: as §4, §5

T2 sequence (Q05655 230-280 limits assumed): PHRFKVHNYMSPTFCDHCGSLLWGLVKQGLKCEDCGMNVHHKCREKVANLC
T3 sequence (Q02156 242-292 limits assumed): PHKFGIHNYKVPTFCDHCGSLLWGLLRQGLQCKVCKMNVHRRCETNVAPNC

Structure (SMILES) | Ki (C1b domain of human PKCθ) | IC50 (A549 cell line) | ratio (IC50 of K101)/(IC50 of compound) HL-60 (HL-60 (Leukemia)) | IC50 (HL-60 (Leukemia)) | ratio (IC50 of K101)/(IC50 of compound) Namalwa (Namalwa (Lymphoma)) | IC50 (Namalwa (Lymphoma)) | ratio (IC50 of K101)/(IC50 of compound) Mino (Mino (Lymphoma)) | IC50 (Mino (Lymphoma)) | EC50 [1] | Ki (C1b domain of human PKCδ) | Ki (C1b domain of human PKCε) | ratio (IC50 of K101)/(IC50 of compound) Panc2.13 (Panc2.13 (Pancreatic)) | IC50 (Panc2.13 (Pancreatic); read-out: IC50 Panc2.13 (Pancreatic)) | IC50 (KP-4 (Pancreatic)) | IC50 (Namalwa (Lymphoma); 96 h)
CC1=C[C@H]2[C@@]3(O)[C@H](C)C[C@]4(OC(=O)CCC5CCCC5)[C@H]([C@@H]3C=C(CO)C[C@]2(O)C1=O)C4(C)C | 10 to 30 nM | 0.03 to 0.06 µM | 9.23 | 30 to 60 nM | 1.73 | 30 to 60 nM | 11 | 1 to 10 nM | 0.06 to 0.1 µM |  |  |  |  |  | 
CC1=C[C@H]2[C@@]3(O)[C@H](C)C[C@]4(OC(=O)C5CC6(C5)CN(C(=O)OC(C)(C)C)C6)[C@H]([C@@H]3C=C(CO)C[C@]2(O)C1=O)C4(C)C | 10 to 30 nM | 0.1 to 0.2 µM |  |  |  |  |  |  |  | 10 to 30 nM |  |  |  |  | 
CC1=C[C@H]2[C@@]3(O)[C@H](C)C[C@]4(OC(=O)CC5CC6(C5)CN(C(=O)OC(C)(C)C)C6)[C@H]([C@@H]3C=C(CO)C[C@]2(O)C1=O)C4(C)C | 10 to 30 nM | 0.03 to 0.06 µM |  |  |  |  |  |  |  |  | 10 to 30 nM |  |  |  | 
CC1=C[C@H]2[C@@]3(O)[C@H](C)C[C@]4(OC(=O)/C=C/c5ccc(C(F)(F)F)cc5)[C@H]([C@@H]3C=C(CO)C[C@]2(O)C1=O)C4(C)C | 10 to 30 nM | 0.06 to 0.1 µM |  |  |  |  |  |  |  | 10 to 30 nM | 10 to 30 nM |  |  |  | 
CC1=C[C@H]2[C@@]3(O)[C@H](C)C[C@]4(OC(=O)[C@@H](N)CCc5ccccc5)[C@H]([C@@H]3C=C(CO)C[C@]2(O)C1=O)C4(C)C | 10 to 30 nM | 0.1 to 0.2 µM | 3.21 | 100 to 200 nM | 0.93 |  | 3.18 | 10 to 30 nM | 0.1 to 0.2 µM |  |  | 4.28 | 200 to 600 nM | 100 to 200 nM | 100 to 600 nM
